Test results as given in patent US20210379204A1, “METHOD FOR CALCULATING TOLERANCE DOSE OF HUMAN BODY TO SUGAR ALCOHOL AND FUNCTIONAL SUGAR” (Zhejiang Huakang Pharmaceutical Co., Ltd., priority 2018, published 2021).

Key:
[1] = tolerated dose of a 70 kg human body converted from the rat maximum tolerated dose (K = 56.0); details: rat dose N x conversion factor 56.0
Text: wherein K is a conversion factor between a 70 kg human body and a 200 g rat, which is 56.0; the maximum tolerated dose N of the rat to xylitol and the tolerated dose R of the human body to the xylitol are both in the unit of g/d; or,
wherein K is a conversion factor between a 70 kg human body and a 200 g rat, which is 56.0. The maximum tolerated dose N of the rat to xylitol and the tolerated dose R of the human body to the xylitol are both in the unit of g/d; or,
In the specific implementation, the maximum tolerated dose of the human body to a certain sugar alcohol or functional sugar recorded in the existing data is used as a reference value firstly. Taking xylitol as an example, the existing companies have declared that the daily intake of xylitol should not exceed 50 g. 50 g of xylitol is set as the reference value, and fluctuation is performed based on the reference value to obtain an estimated value of the experimental range. […] The experiment is continued for 14 days. Considering the experimental results and verification results comprehensively, the maximum tolerated dose N of 200 g rats to xylitol is obtained.

[2] = 200 g rats, gavage each day, 14 days; maximum dose group in which no rat has diarrhea on day 14
Text: at step 2, continuing the step 1 for 14 days;
At step 1, 200 g rats are selected as experimental animal objects, and the 200 g rats are divided into six experimental groups and one control group, with each group including ten numbered rats; and the rats in the six experimental groups (namely, dose (1) experimental group, dose (2) experimental group, dose (3) experimental group, dose (4) experimental group, dose (5) experimental group and dose (6) experimental group) are gavaged with different doses of xylitol each day. The ten rats in each group are gavaged with the same dose.
At step 2, the step 1 is continued for 14 days.
Specifically, 50 g of xylitol was set as the reference value, and estimated values of the experimental range of the human body to xylitol were set to 20 g/d, 30 g/d, 40 g/d, 50 g/d, 60 g/d and 70 g/d (six groups in total) according to the reference value. According to the conversion formula of drug doses of experimental animal and human body, the daily experimental dose of xylitol of 200 g rats was respectively obtained as 0.36 g/d, 0.54 g/d, 0.71 g/d, 0.89 g/d, 1.07 g/d and 1.25 g/d (six groups in total), and then experiments were performed respectively.
Similarly, estimated values of the human body to L-arabinose were respectively set to 70 g/d, 80 g/d, 90 g/d, 100 g/d, 110 g/d and 120 g/d (six groups in total) as the experimental range. According to the conversion formula of drug doses of experimental animal and human body, the daily experimental dose of L-arabinose of 200 g rats was respectively obtained as 1.25 g/d, 1.43 g/d, 1.61 g/d, 1.79 g/d, 1.96 g/d and 2.14 g/d (six groups in total), and then experiments were performed respectively.
Similarly, estimated values of the human body to sorbitol were respectively set to 5 g/d, 10 g/d, 15 g/d, 20 g/d, 25 g/d and 30 g/d (six groups in total) as the experimental range. […]

[3] = human daily intake, declared by some companies, no experimental data; cited from earlier work

O=C[C@H](O)[C@@H](O)[C@@H](O)CO [L-arabinose]
maximum tolerated dose R of the human body [1]: 90 g/day | maximum tolerated dose N of 200 g rat [2]: 1.61 g/day | daily intake should not exceed [3]: ≤ 120 g

OC[C@@H](O)[C@@H](O)[C@H](O)[C@@H](O)CO [sorbitol]
maximum tolerated dose R of the human body [1]: 20 g/day | maximum tolerated dose N of 200 g rat [2]: 0.36 g/day

OC[C@@H](O)[C@H](O)[C@@H](O)CO [xylitol]
maximum tolerated dose R of the human body [1]: 40 g/day | maximum tolerated dose N of 200 g rat [2]: 0.71 g/day
